# In patent publication US8796256B2 (Janssen Pharmaceutica NV, priority 2010, dated 2014):
# Molecular target: T1, ERR1 (also known as ERR-α or ERR-1) (Homo sapiens, UniProt P11474)
# T1 sequence (P11474 193-421 limits assumed): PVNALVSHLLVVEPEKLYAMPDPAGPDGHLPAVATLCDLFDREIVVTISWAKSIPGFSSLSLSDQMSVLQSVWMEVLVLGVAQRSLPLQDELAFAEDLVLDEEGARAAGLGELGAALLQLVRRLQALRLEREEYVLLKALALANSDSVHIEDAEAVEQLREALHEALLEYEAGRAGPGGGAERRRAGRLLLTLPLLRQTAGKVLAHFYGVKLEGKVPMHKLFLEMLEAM
# Assay: TR-FRET assay (disruption of co-activator peptide binding to ERR1 LBD)
# Type: biochemical
# Settings: 6 nM 6His-ERR1LBD, 6 nM GST-SRC-2 peptide; average of 3 independent experiments
# Experimental: Time-Resolved Fluorescence Resonance Energy Transfer (TR-FRET) experiments were performed to examine the functional response of ERR1 (also known as ERR-α or ERR-1) ligands. The TR-FRET assay described herein relied on the conformation of ERR1 for binding to a co-activator peptide: when a test compound binds to ERR1 and alters its conformation, it can disrupt the binding of the co-activator peptide. The components of this homogeneous secondary assay included: the ^6His-tagged-ERR1LBD, a GST-labeled-hSRC2 co-activator polypeptide and a fluorescent donor/acceptor pair from CIS bio international htrf/bioassays (Bedford, Mass.) using both an α-GST Europium (Eu) Cryptate label and an α^6His-XL665 (allophycocyanin) fluorophore.
# For TR-FRET measurements, the reaction was buffered in 25 mM Tris pH 8, 2.5 mM Hepes, 20 mM KCl, 1 mM DTT, and 0.05 mg/mL BSA (delipidated). The final concentrations of reagents were 6 nM of ERR1LBD, 6 nM GST-SRC-2 peptide, 30 nM Eu cryptate, and 7.5 nM a^6His-XL665. Reactions were allowed to reach equilibrium at 25° C. for 4-18 h before collecting data on the Analyst from LJL Biosystems (Molecular Devices Sunnyvale, Calif.). […] Dose response curves were fitted using a hyperbolic equation and the data reported is the average of 3 independent experiments.
row,Structure (SMILES),EC50 [nM]
1,"[2H]C([2H])([2H])N1CC[C@@H](N2C(=O)S/C(=C\c3ccc4c(cnn4Cc4ccc(C(F)(F)F)cc4C(F)(F)F)c3)C2=O)[C@H](F)C1 (relative stereo) [Compound 330, (5Z)-5-({1-[2,4-Bis(trifluoromethyl)benzyl]-1H-indazol-5-yl}methylidene)-3-[trans-3-fluoro-1-(1,1,1-d3)-methylpiperidin-4-yl]-1,3-thiazolidine-2,4-dione]",91
2,"CC(C)N1CC[C@@H](N2C(=O)S/C(=C\c3ccc4c(cnn4Cc4ccc(C(F)(F)F)cc4C(F)(F)F)c3)C2=O)[C@H](F)C1 (relative stereo) [Compound 331, (5Z)-5-({1-[2,4-Bis(trifluoromethyl)benzyl]-1H-indazol-5-yl}methylidene)-3-[trans-3-fluoro-1-(1-methylethyl)piperidin-4-yl]-1,3-thiazolidine-2,4-dione]",238
3,"CCN1CC[C@@H](N2C(=O)S/C(=C\c3ccc4c(cnn4Cc4ccc(Cl)cc4C(F)(F)F)c3)C2=O)[C@@H](F)C1 (relative stereo) [Compound 332, (5Z)-5-({1-[4-Chloro-2-(trifluoromethyl)benzyl]-1H-indazol-5-yl}methylidene)-3-[cis-1-ethyl-3-fluoropiperidin-4-yl]-1,3-thiazolidine-2,4-dione]",110
4,"Cc1nn(Cc2ccc(Cl)cc2C(F)(F)F)c2ccc(/C=C3\SC(=O)N([C@@H]4CCNC[C@H]4F)C3=O)cc12 (relative stereo) [Compound 333, (5Z)-5-({1-[4-Chloro-2-(trifluoromethyl)benzyl]-3-methyl-1H-indazol-5-yl}methylidene)-3-[trans-3-fluoropiperidin-4-yl]-1,3-thiazolidine-2,4-dione]",48
5,"CCN1CC[C@@H](N2C(=O)S/C(=C\c3ccc4c(c3)c(C)nn4Cc3ccc(Cl)cc3C(F)(F)F)C2=O)[C@H](F)C1 (relative stereo) [Compound 334, (5Z)-5-({1-[4-Chloro-2-(trifluoromethyl)benzyl]-3-methyl-1H-indazol-5-yl}methylidene)-3-[trans-1-ethyl-3-fluoropiperidin-4-yl]-1,3-thiazolidine-2,4-dione]",48
6,"Cc1nn(Cc2ccc(Cl)cc2C(F)(F)F)c2ccc(/C=C3\SC(=O)N([C@@H]4CCN(C)C[C@H]4F)C3=O)cc12 (relative stereo) [Compound 335, (5Z)-5-({1-[4-Chloro-2-(trifluoromethyl)benzyl]-3-methyl-1H-indazol-5-yl}methylidene)-3-[trans-3-fluoro-1-methylpiperidin-4-yl]-1,3-thiazolidine-2,4-dione]",46
7,"CCN1CC[C@@H](N2C(=O)S/C(=C\c3ccc4c(cnn4Cc4ccc(C(F)(F)F)cc4C(F)(F)F)c3)C2=O)[C@H](F)C1 (relative stereo) [Compound 336, (5Z)-5-({1-[2,4-Bis(trifluoromethyl)benzyl]-1H-indazol-5-yl}methylidene)-3-[trans-1-ethyl-3-fluoropiperidin-4-yl]-1,3-thiazolidine-2,4-dione]",293
8,"CCN1CC[C@@H](N2C(=O)S/C(=C\c3ccc4c(cnn4Cc4ccc(Cl)cc4C(F)(F)F)c3)C2=O)[C@H](F)C1 (single isomer, unassigned) [Compound 326, (5Z)-5-({1-[4-Chloro-2-(trifluoromethyl)benzyl]-1H-indazol-5-yl}methylidene)-3-[trans-1-ethyl-3-fluoropiperidin-4-yl]-1,3-thiazolidine-2,4-dione]",140
9,"O=C1S/C(=C\c2ccc3c(cnn3Cc3ccc(Cl)cc3C(F)(F)F)c2)C(=O)N1C[C@@H]1C[C@H](O)CN1 (stereo in doubt) [Compound 286, (5Z)-5-({1-[4-Chloro-2-(trifluoromethyl)benzyl]-1H-indazol-5-yl}methylidene)-3-{[(2S,4S)-4-hydroxypyrrolidin-2-yl]methyl}-1,3-thiazolidine-2,4-dione]",456
10,O=C1S/C(=C\c2ccc3c(cnn3Cc3ccc(Cl)cc3C(F)(F)F)c2)C(=O)N1CCN1CC[C@H](O)C1 [Compound 1],130
11,"O=C1S/C(=C\c2ccc3c(cnn3Cc3ccc(Cl)cc3C(F)(F)F)c2)C(=O)N1CCN1CC[C@H](F)C1 [Compound 2, (5Z)-5-({1-[4-Chloro-2-(trifluoromethyl)benzyl]-1H-indazol-5-yl}methylidene)-3-{2-[(3S)-3-fluoro-pyrrolidin-1-yl]ethyl}-1,3-thiazolidine-2,4-dione]",185
12,"CN(C)CCN1C(=O)S/C(=C\c2ccc3c(cnn3Cc3ccc(F)cc3C(F)(F)F)c2)C1=O [Compound 5, (5Z)-3-[2-(Dimethylamino)ethyl]-5-[(1-{[4-fluoro-2-(trifluoromethyl)phenyl]methyl}-1H-indazol-5-yl)methylidene]-1,3-thiazolidine-2,4-dione]",180
13,"COc1ccc(Cn2ncc3cc(/C=C4\SC(=O)N(CCN5CCN(C)CC5)C4=O)ccc32)c(C(F)(F)F)c1 [Compound 12, (5Z)-5-[(1-{[4-(Methyloxy)-2-(trifluoromethyl)phenyl]methyl}-1H-indazol-5-yl)methylidene]-3-[2-(4-methylpiperazin-1-yl)ethyl]-1,3-thiazolidine-2,4-dione]",72
14,"COc1ccc(Cn2ncc3cc(/C=C4\SC(=O)N(CCN5CC[C@H](O)C5)C4=O)ccc32)c(C(F)(F)F)c1 [Compound 14, (5Z)-3-{2-[(3S)-3-Hydroxypyrrolidin-1-yl]ethyl}-5-({1-[4-methoxy-2-(trifluoromethyl)benzyl]-1H-indazol-5-yl}methylidene)-1,3-thiazolidine-2,4-dione]",100
15,"COc1ccc(Cn2ncc3cc(/C=C4\SC(=O)N(CCN5CCC(O)CC5)C4=O)ccc32)c(C(F)(F)F)c1 [Compound 15, (5Z)-3-[2-(4-Hydroxypiperidin-1-yl)ethyl]-5-({1-[4-methoxy-2-(trifluoromethyl)benzyl]-1H-indazol-5-yl}methylidene)-1,3-thiazolidine-2,4-dione]",62
16,"COc1ccc(Cn2ncc3cc(/C=C4\SC(=O)N(CCN5CCN(CCO)CC5)C4=O)ccc32)c(C(F)(F)F)c1 [Compound 16, (5Z)-3-{2-[4-(2-Hydroxyethyl)piperazin-1-yl]ethyl}-5-({1-[4-methoxy-2-(trifluoromethyl)benzyl]-1H-indazol-5-yl)methylidene)-1,3-thiazolidine-2,4-dione]",71

# Now those with a lower EC50, led by results:
row,EC50 [nM],Structure (SMILES)
1,24,N#CCN1CC[C@@H](N2C(=O)S/C(=C\c3ccc4c(cnn4Cc4ccc(Cl)cc4C(F)(F)F)c3)C2=O)[C@H](F)C1 (relative stereo) [Compound 338]
2,43,"O=C1S/C(=C\c2ccc3c(cnn3Cc3ccc(Cl)cc3C(F)(F)F)c2)C(=O)N1CCN1CCOCC1 [Compound 3, (5Z)-5-({1-[4-Chloro-2-(trifluoromethyl)benzyl]-1H-indazol-5-yl}methylidene)-3-(2-morpholin-4-ylethyl)-1,3-thiazolidine-2,4-dione]"
3,35,"CN(C)CCCN1C(=O)S/C(=C\c2ccc3c(cnn3Cc3ccc(C(F)(F)F)cc3C(F)(F)F)c2)C1=O [Compound 6, (5Z)-5-[(1-{[2,4-Bis(trifluoromethyl)-phenyl]methyl}-1H-indazol-5-yl)methylidene]-3-[3-(dimethylamino)-propyl]-1,3-thiazolidine-2,4-dione]"
4,33,"CN(C)CCN1C(=O)S/C(=C\c2ccc3c(cnn3Cc3ccc(C(F)(F)F)cc3C(F)(F)F)c2)C1=O [Compound 7, (5Z)-5-[(1-{[2,4-Bis(trifluoromethyl)-phenyl]methyl}-1 H-indazol-5-yl)methylidene]-3-[2-(dimethylamino)-ethyl]-1,3-thiazolidine-2,4-dione]"
5,4,"COc1ccc(Cn2ncc3cc(/C=C4\SC(=O)N(CCN(C)C)C4=O)ccc32)c(C(F)(F)F)c1 [Compound 9, (5Z)-3-[2-(Dimethylamino)ethyl]-5-[(1-{[4-(methyloxy)-2-(trifluoromethyl)phenyl]-methyl}-1H-indazol-5-yl)methylidene]-1,3-thiazolidine-2,4-dione]"
6,8,"COc1ccc(Cn2ncc3cc(/C=C4\SC(=O)N(CCCN(C)C)C4=O)ccc32)c(C(F)(F)F)c1 [Compound 10, (5Z)-3-[3-(Dimethylamino)propyl]-5-[(1-{[4-(methyloxy)-2-(trifluoromethyl)phenyl]-methyl}-1H-indazol-5-yl)methylidene]-1,3-thiazolidine-2,4-dione]"
7,27,"COc1ccc(Cn2ncc3cc(/C=C4\SC(=O)N(CCN5CCCCC5)C4=O)ccc32)c(C(F)(F)F)c1 [Compound 11, (5Z)-5-[(1-{[4-(Methyloxy)-2-(trifluoromethyl)phenyl]methyl}-1H-indazol-5-yl)methylidene]-3-(2-piperidin-1-ylethyl)-1,3-thiazolidine-2,4-dione]"
8,43,"COc1ccc(Cn2ncc3cc(/C=C4\SC(=O)N(CCN5CC[C@@H](F)C5)C4=O)ccc32)c(C(F)(F)F)c1 [Compound 13, (5Z)-3-{2-[(3R)-3-Fluoropyrrolidin-1-yl]ethyl}-5-[(1-{[4-(methyloxy)-2-(trifluoromethyl)phenyl]methyl}-1H-indazol-5-yl)methylidene]-1,3-thiazolidine-2,4-dione]"
